Test results as given in US5837282A, “Ionophore-mediated liposome loading” (priority 1996, dated 1998).
Where two headings read alike, the source gives them in different places.

Legend:
[1] = Drug uptake/leakage after removal of nigericin (spin column, dialysis)
Procedure: Uptake was monitored for LUVs containing 300 mM K2 SO4 at a nigericin concentration of 1 ng/μmol lipid (.box-solid.), and for LUVs which were preincubated with nigericin for 5 min at 60° C., and then passed down a spin column prior to addition of the drug (.circle-solid.).
Thus, an aliquot of nigericin (1 ng NIG/μmol lipid) was added to a sample of SPM/Chol LUVs containing 300 mm KH2 PO4 and the temperature was increased to 60° C. for 5 min to ensure association of nigericin with the lipid. The sample was then exhaustively dialysed at room temperature against 300 mM sucrose for 20 hours, following which an aliquot was passed down a spin column prior to drug loading with VINC (FIG. 10B).
To ensure that such was not the case, control uptake experiments were performed on LUVs containing ethylammonium sulfate and amylammonium sulfate which were subjected to the same conditions.

[2] = Deamer et al.; cited from earlier work
[3] = literature; cited from earlier work
[4] = Fluorimetric determination of A23187 in a liposomal formulation; assay type: physicochemical; conditions: for Amount of A23187 measured: no removal; for remaining A23187 concentration: initial 500 ng
Procedure: The quantity of A23187 in SPM/Chol LUVs was determined by measuring the fluorescence intensity of the ionophore at an emission wavelength of 437 nm following solubilization of the liposomal formulation and complexation of the released divalent cations. Briefly, an aliquot of LUV/A23187 (corresponding to 5 μmol total lipid) was combined with a 333 mM EDTA solution (3 μL) and the volume was made up to 1 mL with ethanol:methanol (70:30 v:v). The sample was vortexed until clear, and the fluorescence intensity was measured. Calibration standards were prepared by the addition of known aliquots of A23187 to a 1 mL solution consisting of ethanol:methanol (70:30 v:v) and containing 5 mM total lipid.
As mentioned above, the concentration of A23187 in LUVs can be quantitated using a fluorimetric assay which allows determination of the amount remaining following various purification procedures. The results are given in Table 5 for SPM/Chol LUVs initially containing A23187 at a concentration of 0.1 μg/μmol lipid. For sample 1 (S1), 146 ng of A23187 was added to the LUVs, and 123 ng was measured by the assay.

[5] = Pressman, cited from earlier work
[6] = large Mn2+ gradient still present; Erdahl et al.; cited from earlier work

O=C(O)c1cn(C2CC2)c2cc(N3CCNCC3)c(F)cc2c1=O [Ciprofloxacin, ciprofloxacin]
entrapment ([1]; SPM/Chol LUVs, 300 mM K2SO4, nigericin 1 ng/μmol lipid and drug added at same time, D/L 0.2, 60 °C, within 30 min): 80%
in vitro leakage rates, normal versus nigericin-reduced LUVs ([1]; not shown): identical

amylammonium sulfate
encapsulation in control LUVs containing amine salt subjected to the same dialysis ([1]; control LUVs, same dialysis conditions): 80-95%

CO[C@@H]1C[C@@H](C[C@H]2CC[C@H](C)[C@H]([C@@H](C)C(=O)O)O2)O[C@]2(O[C@](C)([C@H]3CC[C@@](C)([C@@H]4O[C@@H]([C@H]5O[C@@](O)(CO)[C@H](C)C[C@@H]5C)C[C@@H]4C)O3)C[C@H]2C)[C@@H]1C [Nigericin, nigericin]
pH gradient formed across sonicated vesicle membranes [2]: 2.2 units

COc1cccc2c1C(=O)c1c(O)c3c(c(O)c1C2=O)C[C@@](O)(C(=O)CO)C[C@@H]3O[C@H]1C[C@H](N)[C@H](O)[C@H](C)O1 [doxorubicin]
effect of encapsulation on drug toxicity (particularly acute cardiotoxicity) [3]: can decrease drug toxicity
efficacy in liposomally-encapsulated formulations [3]: equal or increased efficacy
toxicity in liposomally-encapsulated formulations [3]: significantly reduced toxicity

CNc1ccc2oc(C[C@H]3O[C@@]4(CC[C@H]3C)O[C@H]([C@H](C)C(=O)c3ccc[nH]3)[C@H](C)C[C@H]4C)nc2c1C(=O)O [A23187]
Amount of A23187 measured ([4]; S1, initial amount 146 ng, SPM/Chol LUVs): 123 ng
remaining A23187 level ([4]; S2, Sephadex G-50 column eluted with 300 mM sucrose, initial 109 ng): below background
remaining A23187 concentration ([4]; S3, dialysis against 300 mM sucrose): below background levels
Amount of A23187 measured ([4]; S4 + 45 ng A23187, initial amount 45 ng): 41 ng
Amount of A23187 measured ([4]; S4 + 90 ng A23187, initial amount 90 ng): 94 ng
remaining A23187 concentration ([4]; S4, SM-2 biobeads): below background levels
relative binding affinity ([5]; Ca2+, relative to Mn2+ and Mg2+ (210:2.6:1)): 2.6
relative binding affinity ([5]; Mg2+, relative to Mn2+ and Ca2+ (210:2.6:1)): 1
relative binding affinity ([5]; Mn2+, relative to Ca2+ and Mg2+ (210:2.6:1)): 210
divalent cation transport specificity [5]: Mn^2+ >Ca^2+ >Mg^2+
fraction of entrapped Mn2+ released from POPC vesicles [6]: < 1/2
